Data as given in patent US20110003000A1, “Transvaginal Delivery of Drugs” (FemmePharma Holding Company, Inc., priority 2009, published 2011).
Structures can show the parent of a compound that is named as a salt.

Tests used:
[1] = tested on: urgency incontinence; urinary frequency, urgency and nocturia; assay: Clinical case reports of transvaginal oxybutynin; assay type: in vivo, human; settings: person
Method: A person developed urgency incontinence two years after their laparoscopically assisted transvaginal hysterectomy. […] Two weeks later, they started applying oxybutynin (5 mg) into the vagina at bed time, instead of Ditropan XL. […] The patient used transvaginal oxybutynin (5 mg) at bed time for 6 months.
A person with a history of chronic pelvic pain and multiple surgical procedures, including pain mapping under conscious sedation and repair of occult bilateral inguinal hernias, developed urinary frequency, urgency and nocturia. Their urine analysis and urine culture were negative for signs of urinary tract infection. Their treatment began with transvaginal oxybutynin (5 mg) once daily, at bed time, applied into the vagina.

[2] = tested on: persistent urge incontinence; settings: intravesical administration; eleven patients; cited from earlier work
[3] = 5 mg into the vagina at bed time
[4] = 5 mg into the vagina twice daily
[5] = transvaginal 5 mg at bed time for 6 months

In the case of `CCN(CC)CC#CCOC(=O)C(O)(c1ccccc1)C1CCCCC1` (stereo not shown) [oxybutynin], the side effects [1, 3] is reported as “did not experience any noticeable side effects”, the urgency symptoms [1, 3] is reported as “improved remarkably” and the improvement of symptoms [1, 4] is reported as “remarkable improvement”. The side effects [1, 4] was “no significant side effects”, the “control of symptoms of urgency incontinence throughout the treatment period” value [1, 5] was “remained effective” and the “side effects throughout the treatment period” value [1, 5] was “did not suffer from any side effects”. For the same compound, the “improvement of urinary frequency, urgency and nocturia” value ([1]; transvaginal 5 mg once daily at bed time) was “significant improvement”.

For `Cc1ccc(O)c([C@H](CCN(C(C)C)C(C)C)c2ccccc2)c1` [DETROL, tolterodine tartrate], the “improvement of urgency incontinence” value ([1]; 2 mg orally twice a day) was “slight improvement”.

In the case of `CCN(CC)CC#CCOC(=O)C(O)(c1ccccc1)C1CCCCC1` (stereo not shown) [oxybutynin chloride], the “patients reporting improvement and becoming totally continent” value [2] is listed as “Ten out of eleven” and the side effects [2] is listed as “no side effects were observed”.
